From the NIST ThermoML archive (doi:10.1016/j.fluid.2005.03.026)

Tests used:
[1] = molar heat capacity at constant pressure; conditions: 101.3 kPa, Liquid, Small sample (50 mg) DSC
[2] = molar heat capacity at constant pressure; xn = mol fraction of the nth substance listed; conditions: 101.3 kPa, Liquid, Small sample (50 mg) DSC

Cc1ccc(C)cc1 [1,4-dimethylbenzene]
[1]
Conditions	molar heat capacity at constant pressure [J/K/mol]
288.15 K	178.86
298.15 K	182.56
308.15 K	186.15

Cc1ccc(C)cc1 [1,4-dimethylbenzene] + CCCCCCCCCC
molar heat capacity at constant pressure [J/K/mol], [2]
Conditions	288.15 K	298.15 K	308.15 K
x1 = 0.05066	303.41	308.28	313.15
x1 = 0.1092	295.7	300.41	305.32
x1 = 0.1983	283.92	288.58	293.34
x1 = 0.3105	269	273.63	278.21
x1 = 0.3427	264.73	269.34	273.97
x1 = 0.4538	250.03	254.47	258.95
x1 = 0.4919	244.95	249.41	253.84
x1 = 0.5995	230.71	235.12	239.35
x1 = 0.6975	217.77	222.04	226.15
x1 = 0.7866	206.1	210.33	214.31
x1 = 0.8403	199.13	203.21	207.08
x1 = 0.8993	191.5	195.54	199.3
x1 = 0.9499	185.04	188.96	192.6

Cc1ccc(C)cc1 [1,4-dimethylbenzene] + COC(=O)OC
molar heat capacity at constant pressure [J/K/mol], [2]
Conditions	288.15 K	298.15 K	308.15 K
x2 = 0	178.86	182.56	186.15
x2 = 0.04522	178.07	181.79	185.28
x2 = 0.09687	177.32	180.82	184.22
x2 = 0.2003	175.72	178.96	182.14
x2 = 0.3136	173.97	176.99	179.84
x2 = 0.4125	172.39	175.09	177.74
x2 = 0.4946	171.06	173.56	176.04
x2 = 0.5368	170.43	172.79	175.13
x2 = 0.6528	168.55	170.61	172.04
x2 = 0.8445	165.6	167.14	168.84
x2 = 0.9	164.89	166.25	167.79

CCCCCCCCCC [decane]
[1]
Conditions	molar heat capacity at constant pressure [J/K/mol]
288.15 K	310.09
298.15 K	315.04
308.15 K	320.03

CCCCCCCCCC [decane] + COC(=O)OC
molar heat capacity at constant pressure [J/K/mol], [2]
Conditions	288.15 K	298.15 K	308.15 K
x2 = 0	310.09	315.04	320.03
x2 = 0.0486	302.45	307.21	311.97
x2 = 0.1015	294.55	298.95	303.55
x2 = 0.1491	287.67	291.87	296.24
x2 = 0.198	280.61	284.73	288.82
x2 = 0.3041	266.76	269.88	273.33
x2 = 0.4015	255.05	256.83	259.45
x2 = 0.4497	250.05	250.5	252.64
x2 = 0.5505	242.42	236.43	238.36
x2 = 0.6011	237.62	229.81	230.9
x2 = 0.6454	231.62	223.97	–
x2 = 0.6945	223.46	216.47	216.49
x2 = 0.7943	202.82	198.92	199.64
x2 = 0.8464	–	189.34	190.56
x2 = 0.8975	179.17	180.34	181.8
x2 = 0.949	170.97	172.02	173.51

COC(=O)OC [dimethyl carbonate]
[1]
Conditions	molar heat capacity at constant pressure [J/K/mol]
288.15 K	163.61
298.15 K	164.65
308.15 K	165.92

COC(=O)OC [dimethyl carbonate] + Cc1ccc(C)cc1
[2], x1 = 1
Conditions	molar heat capacity at constant pressure [J/K/mol]
288.15 K	163.61
298.15 K	164.65
308.15 K	165.92
